{"source": "paper PMC10713630", "about": "“Elucidation of the structural basis for ligand binding and translocation in conserved insect odorant receptor co-receptors” (Nature Communications, 2023)", "type_in_all_cases": "cell-based", "key": {"DmelOrco M210L": {"biological_target": "DmelOrco M210L (Drosophila melanogaster, UniProt Q9VNB5, M210L)", "sequence (Q9VNB5 whole entry M210L, the tested form may be a part)": "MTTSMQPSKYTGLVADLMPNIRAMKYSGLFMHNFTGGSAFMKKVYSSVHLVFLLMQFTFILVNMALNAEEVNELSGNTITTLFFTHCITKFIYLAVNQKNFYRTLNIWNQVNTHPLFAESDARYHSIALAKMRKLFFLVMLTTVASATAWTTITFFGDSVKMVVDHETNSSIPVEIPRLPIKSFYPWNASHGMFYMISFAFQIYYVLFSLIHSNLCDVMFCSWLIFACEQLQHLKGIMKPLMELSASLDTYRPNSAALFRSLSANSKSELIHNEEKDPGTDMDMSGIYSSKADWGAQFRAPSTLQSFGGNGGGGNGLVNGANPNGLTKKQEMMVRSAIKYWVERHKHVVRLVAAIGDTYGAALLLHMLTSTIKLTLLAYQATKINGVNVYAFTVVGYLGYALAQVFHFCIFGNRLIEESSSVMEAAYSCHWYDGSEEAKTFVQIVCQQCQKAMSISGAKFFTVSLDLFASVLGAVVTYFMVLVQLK", "experiment": "TEVC recording of VUAA1-induced current, DmelOrco M210L in Xenopus oocytes", "details": "500 µM VUAA1, TEVC", "description": "(§1) All Orco gene sequences were optimized[63] for protein expression in Xenopus laevis oocytes with the GenSmartTM Codon optimization Tool and subcloned into a pGEMHE-derived vector. The wildtype gene of Drosophila melanogaster Orco (DmelOrco) was synthesized by Genscript and subcloned with XmaI/XhoI cloning sites. Site-directed mutagenesis of DmelOrco was done by PCR with the Q5® site directed mutagenesis kit (NEB) using primers optimized with the NEBase Changer online tool and following the supplier’s protocol. After transformation of commercial competent bacteria (XL10 Gold) by standard heat-shock protocol and overnight culture in ampicillin-containing LB plates, positive clones were identified by electrophoretic restriction profile and external sequencing (Genewiz). DNAs of positive clones were amplified with Qiagen MidiPrep Kit and the ORF was fully sequenced. For in vitro transcription, DNAs were linearized with restriction enzyme NotI that cuts a unique site in the 3′ region of the polyA tail. […] DNA and RNA were analyzed by agarose-gel electrophoresis and quantified by spectrophotometry. […]\n(§2) Whole cell currents were recorded with the two-electrode voltage-clamp (TEVC) technique with the HiClamp robot (MultiChannel System). […] Data were extracted with M. Vivaudou’s programs[65] and statistically analyzed with Prism 8 (Graphpad)."}, "DmelOrco L141A": {"biological_target": "DmelOrco L141A (Drosophila melanogaster, UniProt Q9VNB5, L141A)", "sequence (Q9VNB5 whole entry L141A, the tested form may be a part)": "as the sequence (Q9VNB5 whole entry M210L, the tested form may be a part) above, with L141A, L210M counted along it", "experiment": "TEVC recording of VUAA1-induced current, DmelOrco L141A in Xenopus oocytes", "details": "500 µM VUAA1, TEVC", "description": "as §1, with “sequenced.” for “sequenced. For in vitro transcription, DNAs were linearized with restriction enzyme NotI that cuts a unique site in the 3′ region of the polyA tail.”\nWhole cell currents were recorded with the two-electrode voltage-clamp (TEVC) technique with the HiClamp robot (MultiChannel System). […] Data were extracted with M. Vivaudou’s programs[65] and statistically analyzed with Prism 8 (Graphpad). […]\n100 by 500 µM of the ligand VUAA1 and measured by TEVC recordings on DmelOrco WT and mutants […]"}, "DmelOrco I79W": {"biological_target": "DmelOrco I79W (Drosophila melanogaster, UniProt Q9VNB5, I79W)", "sequence (Q9VNB5 whole entry I79W, the tested form may be a part)": "as the sequence (Q9VNB5 whole entry M210L, the tested form may be a part) above, with I79W, L210M counted along it", "experiment": "TEVC recording of VUAA1-induced current, DmelOrco I79W in Xenopus oocytes", "set-up": "VUAA1-induced current, i79W: unit not given here", "details": "for VUAA1-induced current, i79W: individual oocytes", "description": "(§3) All Orco gene sequences were optimized[63] for protein expression in Xenopus laevis oocytes with the GenSmartTM Codon optimization Tool and subcloned into a pGEMHE-derived vector. The wildtype gene of Drosophila melanogaster Orco (DmelOrco) was synthesized by Genscript and subcloned with XmaI/XhoI cloning sites. Site-directed mutagenesis of DmelOrco was done by PCR with the Q5® site directed mutagenesis kit (NEB) using primers optimized with the NEBase Changer online tool and following the supplier’s protocol. After transformation of commercial competent bacteria (XL10 Gold) by standard heat-shock protocol and overnight culture in ampicillin-containing LB plates, positive clones were identified by electrophoretic restriction profile and external sequencing (Genewiz). DNAs of positive clones were amplified with Qiagen MidiPrep Kit and the ORF was fully sequenced. For in vitro transcription, DNAs were linearized with restriction enzyme NotI that cuts a unique site in the 3′ region of the polyA tail. The linearized DNAs were purified by the standard phenol:chloroform extraction method and transcribed into mRNA using the T7 ultra mMessage mMachine kit (Thermo Fisher Scientific). mRNAs were purified with the NucleoSpin RNA plus XS kit (Machery-Nagel). DNA and RNA were analyzed by agarose-gel electrophoresis and quantified by spectrophotometry.\n(§4) Xenopus laevis oocytes were prepared, as previously described. Briefly, oocytes were defolliculated after surgical retrieval by type 1 A collagenase over 2-3 h under smooth horizontal agitation. They were manually selected and incubated at 19 °C in modified-Barth’s solution (1 mM KCl, 0.82 mM MgSO4, 88 mM NaCl, 2.4 mM NaHCO3, 0.41 mM CaCl2, Ca(NO3)2 0.3 mM, 16 mM HEPES, pH 7.4) supplemented with 100 U mL^−1 of penicillin and streptomycin and 0.1 mg mL^−1 of gentamycin. Each oocyte was micro-injected with the Nanoject instrument (Drummond) with 50 nL of 20 ng of mRNA coding for the Orco of interest. Injected oocytes were incubated individually in 96-well plates for 4 days at 19 °C in the same buffer. Different batches of oocytes have been tested per construct. The results of the mutants of interest have been confirmed by a second set of experiments comparing the amplitudes with WT in the same day and from the same batch of oocytes (Supplementary Fig. 11).\n(§5) Whole cell currents were recorded with the two-electrode voltage-clamp (TEVC) technique with the HiClamp robot (MultiChannel System). Microelectrodes were filled with 3 M KCl. The high K^+ buffer used for recordings was composed of 91 mM KCl, 1 mM MgCl2, 1.8 mM CaCl2, 5 mM HEPES, pH 7.4. Membrane voltage was clamped to −50 mV and VUAA1 was applied for 60 s. Data were extracted with M. Vivaudou’s programs[65] and statistically analyzed with Prism 8 (Graphpad)."}, "DmelOrco Y397A": {"biological_target": "DmelOrco Y397A (Drosophila melanogaster, UniProt Q9VNB5, Y397A)", "sequence (Q9VNB5 whole entry Y397A, the tested form may be a part)": "as the sequence (Q9VNB5 whole entry M210L, the tested form may be a part) above, with L210M, Y397A counted along it", "experiment": "TEVC recording of VUAA1-induced current, DmelOrco Y397A in Xenopus oocytes", "set-up": "VUAA1-induced current, Y397A: unit not given here", "description": "as §1, §2"}, "DmelOrco Y390S": {"biological_target": "DmelOrco Y390S (Drosophila melanogaster, UniProt Q9VNB5, Y390S)", "sequence (Q9VNB5 whole entry Y390S, the tested form may be a part)": "as the sequence (Q9VNB5 whole entry M210L, the tested form may be a part) above, with L210M, Y390S counted along it", "experiment": "TEVC recording of VUAA1-induced current, DmelOrco Y390S in Xenopus oocytes", "details": "500 µM VUAA1, TEVC", "description": "as §1, §2"}, "DmelOrco I181S": {"biological_target": "DmelOrco I181S (Drosophila melanogaster, UniProt Q9VNB5, I181S)", "sequence (Q9VNB5 whole entry I181S, the tested form may be a part)": "as the sequence (Q9VNB5 whole entry M210L, the tested form may be a part) above, with I181S, L210M counted along it", "experiment": "TEVC recording of VUAA1-induced current, DmelOrco I181S in Xenopus oocytes", "set-up": "VUAA1-induced current, i181S / VUAA1-induced current, I181S: unit not given here", "details": "for VUAA1-induced current, I181S: Fig.4i dose-response", "description": "as §3, §4, §5"}}, "note": "Values joined by “and” are separate entries in the source; they are usually repeats but may differ in a detail not shown here. Equal entries are not always repeated. “Also recorded” adds a separate entry of the source.", "data": [{"smiles": "CCc1ccc(NC(=O)CSc2nnc(-c3cccnc3)n2CC)cc1", "note": "[VUAA1, N-(4-ethylphenyl)−2-((4-ethyl-5-(3-pyridinyl)−4H-1,2,4-triazol-3-yl)thio)acetamide]", "values": [{"measurement": "Current induced by VUAA1 (median)", "setting": "DmelOrco M210L", "result": 6.19, "unit": "µA"}, {"measurement": "Response to VUAA1 compared with WT", "setting": "DmelOrco L141A", "result": "did not induce significant change"}, {"measurement": "Response to VUAA1 compared with WT", "setting": "DmelOrco I79W; 500 µM VUAA1, TEVC, I79W", "result": "significantly reduced or abolished the activation"}, {"measurement": "VUAA1-induced current, i79W", "setting": "DmelOrco I79W; Fig.4b", "result": "0.5 and 0.66 and 0.09 and 0.23 and 0.24 and 0.02 and 0.06 and 0.14 and 0.05"}, {"measurement": "VUAA1-induced current, i79W", "setting": "DmelOrco I79W; Fig.4i dose-response, VUAA1 10 µM (Log(M) -5)", "result": "0.07 (2×) and 0.12 and 0.2 and 0.01 (3×) and 0.02 and 0.41 and 0.18"}, {"measurement": "VUAA1-induced current, i79W", "setting": "DmelOrco I79W; Fig.4i dose-response, VUAA1 25 µM (Log(M) -4.6)", "result": "0.12 and 0.11 and 0.22 and 0.36 and 0.01 (3×) and 0.03 and 0.6 and 0.26"}, {"measurement": "VUAA1-induced current, i79W", "setting": "DmelOrco I79W; Fig.4i dose-response, VUAA1 50 µM (Log(M) -4.3)", "result": "0.18 and 0.17 and 0.32 and 0.56 and 0.02 (2×) and 0.03 and 0.05 and 0.68 and 0.28"}, {"measurement": "VUAA1-induced current, i79W", "setting": "DmelOrco I79W; Fig.4i dose-response, VUAA1 100 µM (Log(M) -4)", "result": "0.23 and 0.22 and 0.41 and 0.7 and 0.02 (2×) and 0.06 and 0.09 and 0.71 and 0.29"}, {"measurement": "VUAA1-induced current, i79W", "setting": "DmelOrco I79W; Fig.4i dose-response, VUAA1 500 µM (Log(M) -3.3)", "result": "0.29 and 0.28 and 0.52 and 0.84 and 0.02 and 0.07 and 0.12 and 0.82 and 0.03 and 0.25"}, {"measurement": "VUAA1-induced current, i79W", "setting": "DmelOrco I79W; Fig.4i dose-response, VUAA1 1000 µM (Log(M) -3)", "result": "0.38 and 0.36 and 0.67 and 1.01 and 0.03 and 0.09 and 0.14 and 0.96 and 0.04 and 0.24"}, {"measurement": "Imax", "setting": "DmelOrco I79W; concentration-effect curve of VUAA1, TEVC, I79W", "result": 0.65, "unit": "µA"}, {"measurement": "Response to VUAA1 compared with WT", "setting": "DmelOrco Y397A; 500 µM VUAA1, TEVC, Y397A", "result": "did not significantly affect the amplitude of activation; also recorded: did not significantly change the amplitude of activation"}, {"measurement": "VUAA1-induced current, Y397A", "setting": "DmelOrco Y397A; Fig.4b, individual oocytes", "result": "3.14 and 11.04 and 1.66 and 7.27 and 3.17 and 5.5 and 5.32 and 6.03 and 4.8 and 7.35 and 2.62"}, {"measurement": "Current induced by VUAA1 (median)", "setting": "DmelOrco Y390S", "result": 2.44, "unit": "µA"}, {"measurement": "EC50", "setting": "DmelOrco I181S", "result": 102, "unit": "µM"}, {"measurement": "Current induced by VUAA1 (median)", "setting": "DmelOrco I181S; 500 µM VUAA1, TEVC, I181S", "result": 1.40, "unit": "µA"}, {"measurement": "Response to VUAA1 compared with WT", "setting": "DmelOrco I181S; 500 µM VUAA1, TEVC, I181S", "result": "clear loss of VUAA1 activation"}, {"measurement": "VUAA1-induced current, i181S", "setting": "DmelOrco I181S; Fig.4b, individual oocytes", "result": "1.9 and 2 and 1.3 and 0.38 and 0.78 and 1.7 and 1.5 and 2.2 and 2.1 and 1.2 and 1.4 and 0.46 and 1.1 and 1.8 and 2.3"}, {"measurement": "VUAA1-induced current, I181S", "setting": "DmelOrco I181S; VUAA1 10 µM (Log(M) -5), individual oocytes", "result": "0.26 and 0.25 and 0.11"}, {"measurement": "VUAA1-induced current, I181S", "setting": "DmelOrco I181S; VUAA1 25 µM (Log(M) -4.6), individual oocytes", "result": "0.22 (2×) and 0.2 and 0.06 and 0.1 and 0.03 and 0.21 and 0.09"}, {"measurement": "VUAA1-induced current, I181S", "setting": "DmelOrco I181S; VUAA1 50 µM (Log(M) -4.3), individual oocytes", "result": "0.39 and 0.35 and 0.1 and 0.28 and 0.07 and 0.3 and 0.34 and 0.19"}, {"measurement": "VUAA1-induced current, I181S", "setting": "DmelOrco I181S; VUAA1 100 µM (Log(M) -4), individual oocytes", "result": "1.03 and 0.88 and 0.21 and 0.74 and 0.26 and 0.4 and 0.43 and 0.32"}, {"measurement": "VUAA1-induced current, I181S", "setting": "DmelOrco I181S; VUAA1 500 µM (Log(M) -3.3), individual oocytes", "result": "1.45 and 1.2 and 0.29 and 2.29 and 0.87 and 0.44 and 0.47 and 0.39"}, {"measurement": "VUAA1-induced current, I181S", "setting": "DmelOrco I181S; VUAA1 1000 µM (Log(M) -3), individual oocytes", "result": "1.69 and 1.33 and 0.34 and 1.97 and 0.83 and 0.44 and 0.5 and 0.43"}, {"measurement": "Imax", "setting": "DmelOrco I181S; concentration-effect curve of VUAA1, TEVC, I181S", "result": 0.94, "unit": "µA"}]}]}
